# Laboratory results as given in ChEMBL document CHEMBL1201862, “PubChem BioAssay data set” (2004).
#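 Tested at 5 concentrations; 48 h exposure; 96-well plates; endpoints linearly interpolated, else capped at highest concentration. Here, GI50 denotes the concentration required for 50% inhibition of growth.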 Activity calls are given as the source filed them. No stated cut-off is given here; in the data, active = GI50 up to about 1.1 µM and inactive = higher.
# Experiments:
# Test in all cases: growth of human tumour cells (NCI), 48 h
# A498 = system: A498
# ACHN = system: ACHN
# BT-549 = system: BT-549
# HCC 2998 = system: HCC 2998
# HCT-15 = system: HCT-15
# HL-60 = system: HL-60
# KM12 = system: KM12
# LOX IMVI = system: LOX IMVI
# MDA-MB-231 = system: MDA-MB-231
# MDA-N = system: MDA-N
# MOLT-4 = system: MOLT-4
# NCI-H226 = system: NCI-H226
# NCI-H23 = system: NCI-H23
# NCI-H522 = system: NCI-H522
# OVCAR-5 = system: OVCAR-5
# RPMI-8226 = system: RPMI-8226
# RXF 393 = system: RXF 393
# SF-295 = system: SF-295
# SF-539 = system: SF-539
# UACC-62 = system: UACC-62
SMILES,GI50 (A498),GI50 (ACHN),GI50 (BT-549),GI50 (HCC 2998),GI50 (HCT-15),GI50 (HL-60),GI50 (KM12),GI50 (LOX IMVI),GI50 (MDA-MB-231),GI50 (MDA-N),GI50 (MOLT-4),GI50 (NCI-H226),GI50 (NCI-H23),GI50 (NCI-H522),GI50 (OVCAR-5),GI50 (RPMI-8226),GI50 (RXF 393),GI50 (SF-295),GI50 (SF-539),GI50 (UACC-62)
Cc1cn([C@@H]2O[C@H](CO)[C@@H](O)[C@@H]2O)c(=O)[nH]c1=O,> 1000 µM (inactive),> 1000 µM (inactive),> 1000 µM (inactive),> 1000 µM (inactive),> 1000 µM,> 1000 µM (inactive),> 1000 µM (inactive),> 1000 µM (inactive),> 1000 µM (inactive),> 1000 µM (inactive),> 1000 µM (inactive),> 1000 µM (inactive),> 1000 µM (inactive),> 1000 µM (inactive),> 1000 µM (inactive),> 1000 µM (inactive),> 1000 µM (inactive),> 1000 µM (inactive),> 1000 µM (inactive),> 1000 µM (inactive)
CC(CSc1nc2c(c(=N)n1-c1ccccc1)c(=S)n(-c1ccccc1)c(=S)n2-c1ccccc1)CN(C)C (stereo not given),2.8 µM (inactive),1.76 µM (inactive),1.78 µM (inactive),1.32 µM (inactive),1.55 µM,0.615 µM (active),2.25 µM (inactive),1.05 µM (active),1.87 µM (inactive),1.91 µM (inactive),0.931 µM (active),6.38 µM (inactive),2.2 µM (inactive),1.11 µM (active),13.6 µM (inactive),0.335 µM (active),1.59 µM (inactive),6.22 µM (inactive),3.05 µM (inactive),1.7 µM (inactive)
COc1ccc(OCC(=N/NC(=O)c2ccncc2)/N=C/c2cccnc2)cc1,65.3 µM (inactive),72.8 µM (inactive),> 100 µM (inactive),83.9 µM (inactive),60.7 µM,> 100 µM (inactive),50.9 µM (inactive),89.7 µM (inactive),> 100 µM (inactive),17 µM (inactive),69.8 µM (inactive),61.1 µM (inactive),> 100 µM (inactive),13.1 µM (inactive),> 100 µM (inactive),67.6 µM (inactive),35.8 µM (inactive),84.7 µM (inactive),64.3 µM (inactive),43.4 µM (inactive)
Cc1cc(Cc2c(F)c(F)c(C(c3cc(C)no3)c3c(F)c(F)c(F)c(F)c3F)c(F)c2F)on1 (stereo not given),> 100 µM (inactive),> 100 µM (inactive),> 100 µM (inactive),> 27.9 µM (inactive),14.2 µM,5.13 µM (inactive),19.5 µM (inactive),> 46.1 µM (inactive),> 100 µM (inactive),3.04 µM (inactive),17.1 µM (inactive),> 100 µM (inactive),> 100 µM (inactive),23.9 µM (inactive),> 100 µM (inactive),33.5 µM (inactive),2.34 µM (inactive),5.41 µM (inactive),17.9 µM (inactive),> 27 µM (inactive)
O=C(CC1(O)C(=O)Nc2c(Cl)ccc(Cl)c21)c1ccco1 (stereo not given),30.4 µM (inactive),20.5 µM (inactive),36.5 µM (inactive),33.5 µM (inactive),25.2 µM,14.7 µM (inactive),27 µM (inactive),10.9 µM (inactive),25.5 µM (inactive),3.63 µM (inactive),24.9 µM (inactive),19.7 µM (inactive),15.2 µM (inactive),44.3 µM (inactive),20.9 µM (inactive),16.8 µM (inactive),19.4 µM (inactive),20.1 µM (inactive),27.9 µM (inactive),13.5 µM (inactive)
